Test results as given in patent publication US11230538B2, “Herbicides” (SYNGENTA PARTICIPATIONS AG, priority 2016, dated 2022).

Columns and labels:
Assay type in all cases: in vivo
[1] = test system: Alopecurus myosuroides (ALOMY); assay: B2 Post-emergence herbicidal activity; parameters: key: 5=total damage to plant; 0=no damage to plant; settings: post-emergence application, rate 1000 g/ha, evaluated after 13 days
How it was run: (§1)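 Injury was rated 13 days after treatment from 0 (no damage) to 5 (total damage). The spray, applied 8 days after sowing, was an aqueous solution of the active ingredient from an acetone/water (50:50) formulation with 0.5% Tween 20. Plants were kept at 24/16° C, 14 h light, 65% humidity.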

[2] = test system: Setaria fabenri (SETFA); assay: B2 Post-emergence herbicidal activity; parameters: key: 5=total damage to plant; 0=no damage to plant; settings: post-emergence application, rate 1000 g/ha, evaluated after 13 days
How it was run: as §1

[3] = test system: Triticum aestivium (TRZAW); assay: B2 Post-emergence herbicidal activity; parameters: key: 5=total damage to plant; 0=no damage to plant; settings: post-emergence application, rate 1000 g/ha, evaluated after 13 days
How it was run: as §1

[4] = test system: Echinochloa crus-galli (ECHCG); assay: B2 Post-emergence herbicidal activity; parameters: key to Post-emergence herbicidal activity, ECHCG (damage score 0-5): 5=total damage to plant; 0=no damage to plant; settings: post-emergence application, rate 1000 g/ha, evaluated after 13 days
How it was run: as §1

[5] = test system: Lolium perenne (LOLPE); assay: B1 Pre-emergence herbicidal activity; parameters: key to Pre-emergence herbicidal activity, LOLPE (damage score 0-5): 5=total damage to plant; 0=no damage to plant; settings: pre-emergence application, rate 1000 g/ha, evaluated after 13 days
How it was run: (§2)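 Damage was rated 13 days after treatment, from 0 for none to 5 for total. The spray, in acetone/water 50:50 with 0.5% Tween 20, was applied pre-emergence, one day after seeds were sown in soil. Plants grew under glasshouse control at 24/16 °C, 14 h light, 65% humidity.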

[6] = test system: Avena fatua (AVEFA); assay: B2 Post-emergence herbicidal activity; settings: post-emergence application, rate 1000 g/ha, evaluated after 13 days
How it was run: as §1

[7] = test system: Lolium perenne (LOLPE); assay: B2 Post-emergence herbicidal activity; settings: post-emergence application, rate 1000 g/ha, evaluated after 13 days
How it was run: as §1

[8] = test system: Setaria fabenr (SETFA); assay: B1 Pre-emergence herbicidal activity; parameters: key to Pre-emergence herbicidal activity, SETFA (damage score 0-5): 5=total damage to plant; 0=no damage to plant; settings: pre-emergence application, rate 1000 g/ha, evaluated after 13 days
How it was run: as §2

[9] = test system: Alopecurus myosuroides (ALOMY); assay: B1 Pre-emergence herbicidal activity; parameters: key: 5=total damage to plant; 0=no damage to plant; settings: pre-emergence application, rate 1000 g/ha, evaluated after 13 days
How it was run: as §2

[10] = test system: Avena fatua (AVEFA); assay: B1 Pre-emergence herbicidal activity; parameters: key: 5=total damage to plant; 0=no damage to plant; settings: pre-emergence application, rate 1000 g/ha, evaluated after 13 days
How it was run: as §2

[11] = test system: Triticum aestivium (TRZAW); assay: B1 Pre-emergence herbicidal activity; parameters: key: 5=total damage to plant; 0=no damage to plant; settings: pre-emergence application, rate 1000 g/ha, evaluated after 13 days
How it was run: as §2

[12] = test system: Echinochloa crus-galli (ECHCG); assay: B1 Pre-emergence herbicidal activity; settings: pre-emergence application, rate 1000 g/ha, evaluated after 13 days
How it was run: as §2

SMILES	Post-emergence herbicidal activity, ALOMY (damage score 0-5) [1]	Post-emergence herbicidal activity, SETFA (damage score 0-5) [2]	Post-emergence herbicidal activity, TRAZW (damage score 0-5) [3]	Post-emergence herbicidal activity, ECHCG (damage score 0-5) [4]	Pre-emergence herbicidal activity, LOLPE (damage score 0-5) [5]	Post-emergence herbicidal activity, AVEFA (damage score 0-5) [6]	Post-emergence herbicidal activity, LOLPE (damage score 0-5) [7]	Pre-emergence herbicidal activity, SETFA (damage score 0-5) [8]	Pre-emergence herbicidal activity, ALOMY (damage score 0-5) [9]	Pre-emergence herbicidal activity, AVEFA (damage score 0-5) [10]	Pre-emergence herbicidal activity, TRAZW (damage score 0-5) [11]	Pre-emergence herbicidal activity, ECHCG (damage score 0-5) [12]
C=CCN(C(=O)COC)c1ccc(-c2cncc(F)c2)nc1C(F)(F)F [Compound C63]	1	4	0	4	1	2	2	4	0	0	0	2
O=C(Nc1ccc(-c2cncnc2)nc1C(F)(F)F)C(Cl)Cl [Compound C65]	0	5	0	5	2	4	3	3	0	3	0	4
O=C1CCC(=O)N1c1ccc(-c2cncc(F)c2)nc1C(F)(F)F [Compound C67, 1-[6-(5-fluoro-3-pyridyl)-2-(trifluoromethyl)-3-pyridyl]pyrrolidine-2,5-dione]	0	4	0	4	0	2	2	2	0	0	0	1
CCC(=O)N(Cc1ccncc1)c1ccc(-c2cncc(F)c2)nc1C(F)(F)F [Compound C70]	0	3	0	2	1	2	1	2	0	1	0	2
COCC(=O)N(CC1CC1)c1ccc(-c2cncc(F)c2)nc1C(F)(F)F [Compound C80]	1	5	1	3	0	2	1	3	0	1	0	2
COCCN(C(=O)C(C)C)c1ccc(-c2cncc(F)c2)nc1C(F)(F)F [Compound C85]	0	4	1	4	0	2	1	2	0	0	0	2
CSCCN(C(=O)C(C)C)c1ccc(-c2cncc(F)c2)nc1C(F)(F)F [Compound C88]	1	2	1	1	0	1	1	2	0	0	0	1
CC(C)C(=O)N(c1ccc(-c2cncc(F)c2)nc1C(F)(F)F)C(C)C [Compound C90]	0	4	1	4	0	2	1	2	0	0	0	2
C#CCN(C(=O)CC)c1ccc(-c2cncc(F)c2)nc1C(F)(F)F [Compound C94]	0	5	0	4	1	2	2	5	0	1	0	2
